Reference: patent US20220378789A1, “METHODS OF ADMINISTERING ELAGOLIX IN ASSOCIATION WITH ARTIFICIAL REPRODUCTIVE TECHNOLOGIES” (priority 2021, published 2022)
Non-standard residues stand in square brackets, D forms with d. Residues, ends and D or L forms follow the SMILES beside them. d(hArg(Et2)) = CCN=C(NCC)NCCCC[C@@H](N)C(=O)O; hArg(Et2) = CCN=C(NCC)NCCCC[C@H](N)C(=O)O; dPhe(4-Cl) = N[C@H](Cc1ccc(Cl)cc1)C(=O)O; d2Nal = N[C@H](Cc1ccc2ccccc2c1)C(=O)O; d3Pal = N[C@H](Cc1cccnc1)C(=O)O

Legend:
[1] = biological target: T1, GnRH receptor (Homo sapiens, UniProt P30968); experiment: Cohort study of oocyte donors in an assisted reproductive technology cycle: ovulation suppression during ovarian stimulation; assay type: in vivo; conditions: for premature ovulation: Elagolix 200 mg PO QHS vs Ganirelix 250 mcg SQ QHS, 75 donors per group; for Avg. Peak Estradiol / Avg. Peak LH / Avg. Peak Progesterone / Days of Stimulation / Avg. Matures Oocytes / Avg. Oocytes / Avg. Cum GN Dose: group mean; for Avg. Matures Oocytes: mature oocytes at retrieval; for Avg. Oocytes: oocytes retrieved; for Avg. Cum GN Dose: total gonadotropins consumed per cycle
T1 construct: from tissue; host or cells: anterior pituitary gland of the oocyte donors (in vivo)
T1 sequence (P30968 1-328): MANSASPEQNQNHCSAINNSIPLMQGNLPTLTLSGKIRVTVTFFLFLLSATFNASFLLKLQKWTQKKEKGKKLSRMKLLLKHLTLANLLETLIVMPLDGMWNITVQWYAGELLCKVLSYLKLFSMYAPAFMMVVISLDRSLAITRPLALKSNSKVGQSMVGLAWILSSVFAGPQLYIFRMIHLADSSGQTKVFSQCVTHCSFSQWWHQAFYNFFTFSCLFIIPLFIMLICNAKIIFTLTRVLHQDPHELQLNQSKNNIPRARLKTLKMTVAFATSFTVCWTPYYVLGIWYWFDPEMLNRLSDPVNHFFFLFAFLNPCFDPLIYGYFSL
Experimental: An example of a method of the present disclosure includes a Western IRB approved (WIRB® Protocol #20191163) cohort study of 75 oocyte donors undergoing an assisted reproductive technology cycle receiving Elagolix 200 mg PO QHS for ovulation suppression compared to 75 historical donors given Ganirelix 250 mcg SQ QHS. Ovarian stimulation involved 10 days of oral contraceptive pretreatment. A recombinant FSH (Gonal F) starting dosage was based on donor age, AMH and BMI. 20 U HCG addback was given throughout the cycle with antagonists administered with a lead follicle of greater than 14 mm. […] Secondary outcomes are the number of mature oocytes at oocyte retrieval, the maximum estradiol level, the total amount of gonadotropins consumed, and the number of injections and patient cost.
The study medication was an orally bioavailable GnRH antagonist marketed by ABBVIE under the brand name ORILISSA® (Elagolix). The 200 mg dose was administered orally with once daily dosing.
A study comprised 75 oocyte donors from whom data for 75 assisted reproductive technology cycles over the course of a two-year period was collected. Upon completion of data collection, a treatment group and an age and weight-matched control group were compared and assessed on the basis of demographic data, health history, ovarian reserve, and information regarding their ovarian stimulation cycles using Pearson χ2 and Student's t-tests. The primary outcome—premature ovulation rate—was evaluated using Chi squared tests. The secondary outcomes—number of mature oocytes, the maximum estradiol level, and the total amount of gonadotropins consumed—were compared using Student's t-tests.
Protocol for Oocyte Donation with Elagolix for Ovulation Suppression 1. Prospective donor accepted into FDA-accredited egg donation program after successful completion of screening and the signing of the medical consent forms. 2. Oocyte donor given opportunity to volunteer to participate in the study. Oocyte donor given an IRB approved informed consent document and HIPAA authorization for Oocyte Donation with Elagolix for Ovulation Suppression Protocol. 3. Oocyte donor begins oral contraceptives to lead into ovarian stimulation. 4. Oocyte donor discontinues oral contraceptives after 10 to 14 days of administration. 5. 3 days after discontinuing oral contraceptives, oocyte donor begins daily SQ injections of rFSH with the dose based upon age, follicle stimulating hormone (FSH), antimullerian hormone (AMH) and antral follicular count. 6. On day 4 of rFSH medications, the practitioner obtains an estradiol level from an oocyte donor. The rFSH dose will be adjusted as necessary. 7. At 2 to 3 days intervals of medications, the practitioner obtains an estradiol level and performs a transvaginal ultrasound for oocyte donor; an rFSH dose will be adjusted according to the results of the estradiol level and transvaginal ultrasound. 8. Once a 14 mm lead follicle is noted on the ultrasound, the practitioner administers 20 U per day of SQ hCG along with Elagolix 200 mg PO QD, taken at 10 pm. Elagolix is administered for a minimum of 1 day and a maximum of 6 days. 9. Administration of Elagolix 200 mg PO QD is discontinued 24 hours prior to the ovulatory, GnRH agonist trigger. 10. Ovarian stimulation is continued as outlined until oocyte maturity is reached based on follicular number, follicular size, cycle day and estradiol levels, at which time an ovulatory, GnRH agonist was used to induce ovulation and egg retrieval was performed per protocol. All mature eggs are either fertilized with the intended parent's sperm or cryopreserved for future used in egg donation.

[2] = oral administration; cited from earlier work
[3] = biological target: T1, GnRH receptor; conditions: cited from earlier work

SMILES	premature ovulation [1]	Avg. Peak Estradiol [1]	Avg. Peak LH [1]	Avg. Peak Progesterone [1]	Days of Stimulation [1]	Avg. Matures Oocytes [1]	Avg. Oocytes [1]	Avg. Cum GN Dose [1]	estimated half-life (t1/2) [2] [h]	median time of maximum plasma concentration (Tmax) [2] [h]	LH levels ([3]; 4 hours after administration of a single dose)	time for LH concentrations to rebound to about baseline levels or above ([3]; after the last dose, all dose levels) [h]	anovulatory concentrations ([3]; all participants at doses of 100 mg BID or higher, maintained throughout the 7-day study with daily dosing)	estradiol concentration at maximum suppression ([3]; all participants at doses of 200 mg BID and higher) [pg/mL]	estradiol remaining partially suppressed ([3]; at 24 hours, most groups)	safety profile ([3]; doses up to 400 mg twice per day (BID))	adverse events ([3]; healthy premenopausal women)	tolerability ([3]; healthy premenopausal women)	dose giving maximum inhibition of LH ([3]; more sustained suppression at higher doses) [mg BID]
COc1cccc(-c2c(C)n(Cc3c(F)cccc3C(F)(F)F)c(=O)n(C[C@H](NCCCC(=O)[O-])c3ccccc3)c2=O)c1F.[Na+] [Elagolix, 4-((R)-2-[5-(2-fluoro-3-methoxy-phenyl)-3-(2-fluoro-6-trifluoromethyl-benzyl)-4-methyl-2,6-dioxo-3,6-dihydro-2H-pyrimidin-1-yl]-1-phenyl-ethylamino)-butyric acid sodium salt]	no instances of premature ovulation	3959	0.94	1.9	10.49	24.73	30.31	2855	4 to 6	0.5 to 1	22-35 % baseline	24 to 48	Anovulatory concentrations were observed in all participants	~11.8	42-65 % of baseline	acceptable safety profile	No clinically significant adverse events occurred	well tolerated	≥ 200
CCN=C(NCC)NCCCC[C@H](NC(=O)[C@H](CC(C)C)NC(=O)[C@@H](CCCCNC(=NCC)NCC)NC(=O)[C@H](Cc1ccc(O)cc1)NC(=O)[C@H](CO)NC(=O)[C@@H](Cc1cccnc1)NC(=O)[C@@H](Cc1ccc(Cl)cc1)NC(=O)[C@@H](Cc1ccc2ccccc2c1)NC(C)=O)C(=O)N1CCC[C@H]1C(=O)N[C@H](C)C(N)=O [Ganirelix] (Ac-[d2Nal][dPhe(4-Cl)][d3Pal]SY[d(hArg(Et2))]L[hArg(Et2)]P[dA]-NH2)	no instances of premature ovulation	3764	1.3	2.3	10.06	25.42	30.55	2741											
